Patent US20220378773A1, “METHODS FOR TREATING LEUKEMIA AND USE OF A LEUKEMIC STEM CELL SIGNATURE TO PREDICT CLINICAL SENSITIVITY TO THERAPIES” (CELGENE CORPORATION, priority 2019, published 2022)

Key:
[1] = test system: AML graft (human CD45+CD33+ cells); assay: AML xenograft efficacy, 2.5 mg/kg IP twice daily; assay type: in vivo, NOD/SCID mice; details: AML Patient 90668; 500,000 cells per mouse; dosing from Day 21
[2] = test system: colony forming leukemia progenitors; assay: Acute myeloid leukemia colony forming unit (AML-CFU) assay; assay type: cell-based, human
Method: For the AML-colony forming unit (CFU) assay, 0.9% methylcellulose semi-solid culture was used, containing 15% fetal calf serum (FCS), 15% pretested human plasma, 50 μM β mercaptoethanol, and cytokines at concentrations of 100 ng/mL stem cell factor, 100 ng/mL Flt-3 ligand, 20 ng/mL IL-6, 20 ng/mL GM-CSF, 20 ng/mL IL-3, and 3 U/mL of erythropoietin (Amgen, USA).
Cell Culture: Acute myeloid leukemia cells were plated in 0.9% methylcellulose containing 15% FCS, 15% pretested human plasma, 50 μM β-mercaptoethanol, and cytokines at concentrations of 100 ng/mL stem cell factor, 100 ng/mL Flt-3 ligand, 20 ng/mL IL-6, 20 ng/mL GM-CSF, 20 ng/mL IL-3 and 3 U/mL of erythropoietin (Amgen, USA). Acute myeloid leukemia cells were cultured with DMSO or Compound D (prepared as described below) during suspension and CFU assays.
Assay Procedure: After the AML cultures were incubated with DMSO or Compound D for 12 to 14 days at 37° C., plates were assigned scores for the presence of AML-CFU (CFU defined as >50 cells).
Colony assays were performed in semisolid culture supplemented with growth factors, in the presence of Compound D, or DMSO for control. Colonies were counted at Day 14.

AML graft = assay: In vivo apoptosis and cell death (propidium iodide staining); design: species or system NOD/SCID mice; details: after 4 weeks treatment
Text: After treatment finished, cells were harvested from both injected right femur (RF) and non-injected bone marrow (BM, including left femur, 2 tibias), and stained with human antibodies to assess the engraftment levels of AML. Antibodies used for staining included: Mouse anti-human CD45-APC, CD15-FITC, CD34-APC7, CD38-PC7 (BD Biosciences, USA), CD14-PE, CD33-PC5 (Beckman Coulter, USA), CD19-V450, CD19-AF700, CD11b-APC7, CD34-BV421 (BD Biosciences, USA), and propidium iodide (PI; Invitrogen, USA).
Following 4 weeks Compound D treatment, harvested cells were stained with propidium iodide (PI) for detecting apoptotic and dead leukemia cells. […] To determine whether GSPT1 can also be degraded by Compound D administration in vivo, leukemia cells were harvested after 3 doses of Compound D treatment for intracellular flow cytometry to assess the levels of GSPT1 in both injected RF and non-injected BM. […] It seems that Compound D degraded GSPT1 more profoundly in the injected RF than in non-injected BM. More samples had lesser GSPT1 reduction in the non-injected BM than in RF. Perhaps this reflects differences in the niche or blood supply between these sites; intrafemoral (IF) injection involves reaming out the femoral cavity prior to cell injection. […]

GSPT1 = biological target: T1, GSPT1 (Homo sapiens, UniProt P15170+Q96SW2); assay: In vivo GSPT1 expression in xenograft AML model (intracellular FACS); design: species or system mice
T1 construct: endogenous in cells; host or cells: primary AML patient cells (peripheral blood mononuclear cells) in short-term suspension culture
Method: After 4 weeks of transplantation with AML cells, mice were treated with Compound D at 2.5 mg/kg twice a day for 3 doses totally. Four hours after the last treatment, cells were harvested from both injected RF and non-injected BM of each mouse and were stained with CD45-FITC (BD Biosciences, USA), fixed and permeabilized. Cells were then stained with GSPT1-Alexa Fluor 647 for intracellular FACS to detect the expression of GSPT1 in engrafted leukemic cells.

primary AML graft = assay: Pilot in vivo dose study on primary AML graft, 2 weeks dosing; design: species or system NOD/SCID mice
Method: Intrafemoral Transplantation: One day prior to transplantation, NOD/SCID mice were preconditioned by sublethally irradiating (275 cGy) followed by injection with anti-CD122 antibody (200 μg/mouse) to deplete residual host natural killer (NK) cells. On the day of transplantation, viably frozen AML bulk cells (see Section 6.2.1.2) were thawed, counted, and transplanted intrafemorally into the preconditioned mice at a dose of 5×10^6 cells/mouse in a total volume of 30 μL phosphate buffered saline.
Cells harvested from injected and non-injected bone marrow were stained with mouse anti human antibodies as indicated in Section 6.2.1.3. After staining, washed cells were run on an LSRII flow cytometer (BD, USA) with 10,000 to 20,000 events collected for each sample. Collected data were analyzed by FlowJo software (TreeStar, USA) to assess AML engraftment levels in different tissues as determined by the percentage of human CD45+CD33+ cells.
A pilot study was first conducted to determine the potential dosage that can be used to target primary AML graft in NOD/SCID mice. Two AML patient samples (AML 110500 and AML 90191) were tested at 1.25 or 2.5 mg/kg Compound D once daily (QD) or twice daily (BID) intraperitoneally for a total of 4 different dose/schedule groups (FIG. 4). Following pretreatment with sublethal irradiation and anti-CD122 antibody, NOD/SCID mice were intrafemorally transplanted with AML cells that were previously collected from patients and viably frozen. Mice were dosed with Compound D for 2 weeks post transplantation starting on Day 21. […] Percentage of cells positive with myeloid cell marker CD15 were also elevated in both RF and BM of 2.5 mg/kg BID Compound D-dosed mice (FIG. 4, bottom left). […] Based on this pilot study, Compound D was dosed at 2.5 mg/kg BID for the rest of the in vivo experiments.

T1 sequence (P15170 whole entry): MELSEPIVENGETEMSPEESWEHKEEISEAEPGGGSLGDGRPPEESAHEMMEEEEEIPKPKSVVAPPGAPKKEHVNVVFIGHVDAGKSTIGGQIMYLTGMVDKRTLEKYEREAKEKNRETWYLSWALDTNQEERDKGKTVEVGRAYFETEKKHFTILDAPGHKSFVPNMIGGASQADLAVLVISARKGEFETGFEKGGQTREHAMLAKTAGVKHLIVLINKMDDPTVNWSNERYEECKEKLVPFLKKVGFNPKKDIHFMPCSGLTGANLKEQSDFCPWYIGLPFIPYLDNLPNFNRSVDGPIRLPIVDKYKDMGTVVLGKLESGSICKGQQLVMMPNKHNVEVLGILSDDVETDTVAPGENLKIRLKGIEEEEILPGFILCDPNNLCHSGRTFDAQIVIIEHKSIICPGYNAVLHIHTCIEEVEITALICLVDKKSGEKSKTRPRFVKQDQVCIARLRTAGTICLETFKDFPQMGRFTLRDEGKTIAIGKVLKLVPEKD
T1 sequence (Q96SW2 whole entry): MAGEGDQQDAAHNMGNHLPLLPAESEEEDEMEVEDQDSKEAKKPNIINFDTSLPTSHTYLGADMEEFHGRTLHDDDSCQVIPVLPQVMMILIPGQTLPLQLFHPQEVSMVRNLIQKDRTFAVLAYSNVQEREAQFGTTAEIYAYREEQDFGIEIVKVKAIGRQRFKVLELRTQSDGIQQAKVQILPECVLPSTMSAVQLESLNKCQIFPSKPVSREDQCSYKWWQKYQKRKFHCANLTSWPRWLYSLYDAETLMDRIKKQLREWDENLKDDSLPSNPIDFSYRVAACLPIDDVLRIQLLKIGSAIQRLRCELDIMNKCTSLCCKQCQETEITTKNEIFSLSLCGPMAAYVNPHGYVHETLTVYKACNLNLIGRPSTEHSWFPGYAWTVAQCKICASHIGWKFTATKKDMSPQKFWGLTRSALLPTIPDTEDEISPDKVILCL
T1 sequence (Q16531 whole entry partner): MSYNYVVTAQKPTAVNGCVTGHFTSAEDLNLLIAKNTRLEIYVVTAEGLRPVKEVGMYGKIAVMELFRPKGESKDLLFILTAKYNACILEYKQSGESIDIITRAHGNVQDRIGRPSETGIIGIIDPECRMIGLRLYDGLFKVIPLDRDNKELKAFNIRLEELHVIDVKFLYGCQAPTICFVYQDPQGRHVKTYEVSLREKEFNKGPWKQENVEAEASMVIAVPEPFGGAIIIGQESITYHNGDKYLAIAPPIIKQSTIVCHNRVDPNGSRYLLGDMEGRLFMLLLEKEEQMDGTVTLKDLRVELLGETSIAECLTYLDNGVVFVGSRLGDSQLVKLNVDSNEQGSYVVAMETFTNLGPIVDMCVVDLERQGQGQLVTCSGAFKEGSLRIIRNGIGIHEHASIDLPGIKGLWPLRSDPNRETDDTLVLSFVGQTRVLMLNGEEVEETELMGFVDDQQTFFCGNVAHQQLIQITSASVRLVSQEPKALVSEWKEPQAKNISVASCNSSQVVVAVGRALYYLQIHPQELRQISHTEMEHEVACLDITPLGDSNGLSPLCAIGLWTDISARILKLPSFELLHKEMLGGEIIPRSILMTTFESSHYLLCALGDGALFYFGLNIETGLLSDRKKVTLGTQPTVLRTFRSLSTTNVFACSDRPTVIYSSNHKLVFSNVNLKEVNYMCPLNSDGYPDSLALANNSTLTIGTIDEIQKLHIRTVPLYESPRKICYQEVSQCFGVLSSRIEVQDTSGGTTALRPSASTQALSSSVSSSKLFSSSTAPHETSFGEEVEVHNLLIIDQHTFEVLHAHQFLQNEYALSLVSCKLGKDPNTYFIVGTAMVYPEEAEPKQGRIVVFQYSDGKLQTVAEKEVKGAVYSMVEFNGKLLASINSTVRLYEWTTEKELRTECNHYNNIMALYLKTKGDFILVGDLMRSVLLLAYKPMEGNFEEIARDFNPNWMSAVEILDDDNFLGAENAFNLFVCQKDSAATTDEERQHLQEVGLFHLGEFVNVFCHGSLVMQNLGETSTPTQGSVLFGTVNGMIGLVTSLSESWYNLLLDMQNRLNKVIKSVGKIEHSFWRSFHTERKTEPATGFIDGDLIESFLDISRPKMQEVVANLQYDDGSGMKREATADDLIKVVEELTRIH

For O=C1CCC(N2Cc3cc(CNC(=O)C(F)(F)c4ccc(Cl)cc4)ccc3C2=O)C(=O)N1 (stereo not shown) [Compound D, 2-(4-chlorophenyl)-N-((2-(2,6-dioxopiperidin-3-yl)-1-oxoisoindolin-5-yl)methyl)-2,2-difluoroacetamide], the survival [1] was “did not improve survival”, the “colony formation, high vs low LSC17 score samples” value ([2]; 3 high and 3 low LSC17 samples) was “reduced colony formation of the samples with high LSC17 scores more than the samples with low LSC17 samples” and the colony formation ([2]; 7 samples that formed colonies, increasing concentration) was “all 7 samples had reduced colony formation”. For the same compound, the “colony forming leukemia progenitors” value ([2]; Section 6.3 samples) was “inhibited colony forming leukemia progenitors”, the “number of PI+ events in mouse bone marrow” value (AML graft) was “significantly increased” and the “levels of GSPT1 in engrafted leukemia cells” value (GSPT1; 2.5 mg/kg twice a day, 3 doses, 17 samples) was “decreased in RF or BM, or in both RF and BM in the majority of 17 samples tested”. For the same compound, the GSPT1 reduction (GSPT1; Pt120287 and 110555) was “clear GSPT1 reduction in both RF and BM”, the GSPT1 reduction (GSPT1; Pt130607 and 150250) was “did not show dramatic GSPT1 reduction” and the grafted cells (primary AML graft; AML 90191) was “largely not affected”. The “CD34+ primitive leukemic cells in RF and BM” value (primary AML graft; AML 110500, 2.5 mg/kg BID) was “decreased the most”, the “percentage of CD15 positive cells in RF and BM” value (primary AML graft; AML 110500, 2.5 mg/kg BID) was “elevated” and the “AML grafts in RF and BM” value (primary AML graft; AML 110500, 2.5 mg/kg QD and BID) was “significantly decreased”. For the same compound, the AML graft (primary AML graft; AML 110500, 1.25 or 2.5 mg/kg QD or BID IP, 2 weeks, vs vehicle) was “reduced AML graft of patient sample AML 110500 cells in a dose-dependent manner”.
